Data on 24 compounds can be found in patent US20240043439A1, “COMPOUNDS AS C5AR INHIBITORS” (Kira Pharmaceuticals (Suzhou) Ltd., priority 2020, published 2024).

In this test the target is C5aR (Homo sapiens (Human), UniProt P21730). Description: Calcium mobilization (U937/C5aR or HEK293/C5aR cells, FLIPR). Type of test: cell-based. Particulars: agonist human C5a at EC80, FLIPR. The protocol: U937/C5aR cells or HEK293/C5aR cells were washed by PBS and suspended in growth media at the density of 1×10^6 cells/ml. […] to the 384-well plate and culture for overnight. Transfer 250 nl compound solution to the cell plate using Echo, incubate for 60 min. Cells were added with Fluo-4 Direct™ dye and incubate for 50 min at 37° C. 5% CO2 and 10 m at room temperature. Place the cell plate into […] (Molecular Devices). Transfer 10 μl of 5-fold EC80 concentrations of agonist human C5a to the cell plates.
C5aR, sequence (P21730 whole entry): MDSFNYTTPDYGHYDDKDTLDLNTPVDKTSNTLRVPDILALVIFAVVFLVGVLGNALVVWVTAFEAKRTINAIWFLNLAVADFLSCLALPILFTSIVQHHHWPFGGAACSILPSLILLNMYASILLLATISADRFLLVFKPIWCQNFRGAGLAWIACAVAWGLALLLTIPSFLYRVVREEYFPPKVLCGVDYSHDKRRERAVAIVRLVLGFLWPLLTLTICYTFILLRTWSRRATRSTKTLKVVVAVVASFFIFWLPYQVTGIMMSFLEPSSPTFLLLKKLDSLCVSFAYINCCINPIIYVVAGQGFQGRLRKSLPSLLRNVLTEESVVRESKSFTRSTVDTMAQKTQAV
In the case of `Cc1cccc(F)c1C(=O)N1[C@@H]2COC[C@@H]2CC(C(=O)Nc2cccnc2)[C@@H]1c1ccc(NC2CCOCC2)cc1` (mixture of isomers) [Compound 128, cis-1-(2-fluoro-6-methylbenzoyl)-N-(pyridin-3-yl)-2-(4-((tetrahydro-2H-pyran-4-yl)amino)phenyl)octahydrofuro[3,4-b]pyridine-3-carboxamide], the IC50 lay within 2 to 10 µM.

As to `Cc1cccc(F)c1C(=O)N1C2CCC[C@@H]2C[C@H](C(=O)Nc2cnc(-n3nccn3)c(Cl)c2)[C@@H]1c1ccc(NC2CCCC2)cc1` (relative stereo) [Compound 75, cis-N-(5-chloro-6-(2H-1,2,3-triazol-2-yl)pyridin-3-yl)-2-(4-(cyclopentylamino)phenyl)-1-(2-fluoro-6-methylbenzoyl)octahydro-1H-cyclopenta[b]pyridine-3-carboxamide], the 50% inhibitory concentration (IC50) was above 10 µM. Then `Cc1ccc(NC(=O)[C@H]2C[C@H]3CCC[C@H]3N(C(=O)c3cnn(C)c3)C2c2ccc(NC3CCCC3)cc2)cc1C(F)(F)F` (relative stereo) [Compound 112, cis-2-(4-(cyclopentylamino)phenyl)-1-(1-methyl-1H-pyrazole-4-carbonyl)-N-(4-methyl-3-(trifluoromethyl)phenyl)octahydro-1H-cyclopenta[b]pyridine-3-carboxamide], with above 10 µM; and `Cc1cccc(F)c1C(=O)N1C(c2ccc(NC3CCN(C)CC3)cc2)C(C(=O)Nc2ccc3c(cnn3C)c2)C[C@@H]2CCC[C@@H]21` (relative stereo) [Compound 117, cis-1-(2-fluoro-6-methylbenzoyl)-N-(1-methyl-1H-indazol-5-yl)-2-(4-((1-methylpiperidin-4-yl)amino)phenyl)octahydro-1H-cyclopenta[b]pyridine-3-carboxamide], with 2 to 10 µM; and `Cc1cccc(F)c1C(=O)N1C(c2ccc(NC3CCOCC3)cc2)C(C(=O)Nc2cnn(C)c2)C[C@@H]2COC[C@@H]21` (relative stereo) [Compound 127, cis-1-(2-fluoro-6-methylbenzoyl)-N-(1-methyl-1H-pyrazol-4-yl)-2-(4-((tetrahydro-2H-pyran-4-yl)amino)phenyl)octahydrofuro[3,4-b]pyridine-3-carboxamide], with 2 to 10 µM. Regarding `Cc1ccc(NC(=O)C2C[C@@H]3CN(CC(F)(F)F)C[C@@H]3N(C(=O)c3c(C)cccc3F)C2c2ccc(NC3CCCC3)cc2)cc1C(F)(F)F` (relative stereo) [Compound 206, cis-2-(4-(cyclopentylamino)phenyl)-1-(2-fluoro-6-methylbenzoyl)-N-(4-methyl-3-(trifluoromethyl)phenyl)-6-(2,2,2-trifluoroethyl)octahydro-1H-pyrrolo[3,4-b]pyridine-3-carboxamide], the IC50 was in the range of 2 to 10 µM. On to `Cc1ccc(NC(=O)C2CC3CCCC3N(C(=O)c3c(C)cccc3F)C2c2ccc(NC3CCCC3)cc2)cc1C(F)(F)F` (stereo in doubt) [Compound 48, (2S,3R,4aS,7aS)-2-(4-(cyclopentylamino)phenyl)-1-(2-fluoro-6-methylbenzoyl)-N-(4-methyl-3-(trifluoromethyl)phenyl)octahydro-1H-cyclopenta[b]pyridine-3-carboxamide], for which the IC50 is 2 to 10 µM. Take `Cc1ccc(NC(=O)[C@@H]2CCCN(c3ccncn3)[C@H]2c2ccc(NC3CCCC3)cc2)cc1C(F)(F)F` [Compound 3, (2R,3R)-2-(4-(cyclopentylamino)phenyl)-N-(4-methyl-3-(trifluoromethyl)phenyl)-1-(pyrimidin-4-yl)piperidine-3-carboxamide]: the IC50 lay in the range of 2 to 10 µM. Then `Cc1cc(C)cc(S(=O)(=O)N2CCC[C@H](C(=O)Nc3ccc(C)c(C(F)(F)F)c3)[C@@H]2c2ccc(NC3CCCC3)cc2)c1` [Compound 12, (2R,3S)-2-(4-(cyclopentylamino)phenyl)-1-((3,5-dimethylphenyl)sulfonyl)-N-(4-methyl-3-(trifluoromethyl)phenyl)piperidine-3-carboxamide], with above 10 µM; and `COC(=O)c1cccc(C)c1S(=O)(=O)N1CCC[C@H](C(=O)Nc2ccc(C)c(C(F)(F)F)c2)[C@@H]1c1ccc(NC2CCCC2)cc1` [Compound 21, methyl 2-(((2R,3S)-2-(4-(cyclopentylamino)phenyl)-3-((4-methyl-3-(trifluoromethyl)phenyl)carbamoyl)piperidin-1-yl)sulfonyl)-3-methylbenzoate], with above 10 µM; and `COC(=O)c1ccccc1S(=O)(=O)N1CCC[C@H](C(=O)Nc2ccc(C)c(C(F)(F)F)c2)[C@@H]1c1ccc(NC2CCCC2)cc1` [Compound 31, methyl 2-(((2R,3S)-2-(4-(cyclopentylamino)phenyl)-3-((4-methyl-3-(trifluoromethyl)phenyl)carbamoyl)piperidin-1-yl)sulfonyl)benzoate], with 2 to 10 µM. For `Cc1ccc(NC(=O)[C@@H]2CCC3CCc4ccccc4C(=O)N3[C@@H]2c2ccc(NC3CCCC3)cc2)cc1C(F)(F)F` (stereo partly drawn) [Compound 45, (3R,4S)-4-(4-(cyclopentylamino)phenyl)-N-(4-methyl-3-(trifluoromethyl)phenyl)-6-oxo-1,2,3,4,6,11,12,12a-octahydrobenzo[e]pyrido[1,2-a]azepine-3-carboxamide] the value was 2 to 10 µM. Regarding `Cc1cccc(F)c1C(=O)N1[C@@H]2CCC[C@@H]2C[C@H](C(=O)NC2CCN(C)CC2)[C@@H]1c1ccc(NC2CCCC2)cc1` [Compound 53, (2R,3S,4aR,7aR)-2-(4-(cyclopentylamino)phenyl)-1-(2-fluoro-6-methylbenzoyl)-N-(1-methylpiperidin-4-yl)octahydro-1H-cyclopenta[b]pyridine-3-carboxamide], the IC50 was in the range of 2 to 10 µM. Then `Cc1ccc(NC(=O)[C@H]2CCCN(Cc3c(C)cccc3F)[C@H]2c2ccc(NC3CCCC3)cc2)cc1C(F)(F)F` [Compound 159, (2R,3S)-2-(4-(cyclopentylamino)phenyl)-1-(2-fluoro-6-methylbenzyl)-N-(4-methyl-3-(trifluoromethyl)phenyl)piperidine-3-carboxamide], with 2 to 10 µM. Then `Cc1ccc(NC[C@H]2CCCN(C(=O)c3c(C)cccc3F)[C@H]2c2ccc(NC3CCCC3)cc2)cc1C(F)(F)F` [Compound 160, ((2R,3R)-2-(4-(cyclopentylamino)phenyl)-3-(((4-methyl-3-(trifluoromethyl)phenyl)amino)methyl)piperidin-1-yl)(2-fluoro-6-methylphenyl)methanone], with 2 to 10 µM; and `Cc1ccc(NC(=O)[C@H]2CCCN(c3ncnc4ccccc34)[C@H]2c2ccc(N(C(=O)OCc3ccccc3)C3CCCC3)cc2)cc1C(F)(F)F` [Compound 163, benzyl cyclopentyl(4-((2R,3S)-3-((4-methyl-3-(trifluoromethyl)phenyl)carbamoyl)-1-(quinazolin-4-yl)piperidin-2-yl)phenyl)carbamate], with 2 to 10 µM. Take `Cc1ccc(NC(=O)[C@H]2CCCN(c3nccc4nccnc34)[C@H]2c2ccc(N(C(=O)OCc3ccccc3)C3CCCC3)cc2)cc1C(F)(F)F` [Compound 165, benzyl cyclopentyl(4-((2R,3S)-3-((4-methyl-3-(trifluoromethyl)phenyl)carbamoyl)-1-(pyrido[3,4-b]pyrazin-5-yl)piperidin-2-yl)phenyl)carbamate]: the IC50 was 2 to 10 µM.

For `Cc1ccc(NC(=O)[C@H]2CCCN(c3ncnc4cnccc34)[C@H]2c2ccc(N(C(=O)OCc3ccccc3)C3CCCC3)cc2)cc1C(F)(F)F` [Compound 167, benzyl cyclopentyl(4-((2R,3S)-3-((4-methyl-3-(trifluoromethyl)phenyl)carbamoyl)-1-(pyrido[3,4-d]pyrimidin-4-yl)piperidin-2-yl)phenyl)carbamate], the IC50 fell in the range of 2 to 10 µM.

As to `Cc1ccc(NC(=O)[C@H]2CCCN[C@H]2c2ccc(N(c3nccc4scnc34)C3CCCC3)cc2)cc1C(F)(F)F` [Compound 169, (2R,3S)-2-(4-(cyclopentyl(thiazolo[4,5-c]pyridin-4-yl)amino)phenyl)-N-(4-methyl-3-(trifluoromethyl)phenyl)piperidine-3-carboxamide], the IC50 was 2 to 10 µM. Consider `Cc1ccc(NC(=O)[C@@H]2CCCN[C@H]2c2ccc(N(c3nccc4cccnc34)C3CCCC3)cc2)cc1C(F)(F)F` [Compound 171, (2R,3R)-2-(4-(cyclopentyl(1,7-naphthyridin-8-yl)amino)phenyl)-N-(4-methyl-3-(trifluoromethyl)phenyl)piperidine-3-carboxamide], for which the half-maximal inhibitory concentration (IC50) is 2 to 10 µM. `Cc1ccc(NC(=O)[C@H]2CCCN[C@H]2c2ccc(N(c3nccc4nccnc34)C3CCCC3)cc2)cc1C(F)(F)F` [Compound 172, (2R,3S)-2-(4-(cyclopentyl(pyrido[3,4-b]pyrazin-5-yl)amino)phenyl)-N-(4-methyl-3-(trifluoromethyl)phenyl)piperidine-3-carboxamide]: the IC50 fell in the range of 2 to 10 µM.

With `Cc1ccc(NC(=O)[C@H]2CCCN[C@H]2c2ccc(N(c3nccc4ccsc34)C3CCCC3)cc2)cc1C(F)(F)F` [Compound 173, (2R,3S)-2-(4-(cyclopentyl(thieno[2,3-c]pyridin-7-yl)amino)phenyl)-N-(4-methyl-3-(trifluoromethyl)phenyl)piperidine-3-carboxamide], the IC50 was 2 to 10 µM. Then `Cc1ccc(NC(=O)[C@@H]2CCCN[C@H]2c2ccc(N(c3ncnc4cccnc34)C3CCCC3)cc2)cc1C(F)(F)F` [Compound 174, (2R,3R)-2-(4-(cyclopentyl(pyrido[3,2-d]pyrimidin-4-yl)amino)phenyl)-N-(4-methyl-3-(trifluoromethyl)phenyl)piperidine-3-carboxamide], with 2 to 10 µM; and `Cc1ccc(NC(=O)[C@H]2CCCN[C@H]2c2ccc(N(c3nccc4ccccc34)C3CCCC3)cc2)cc1C(F)(F)F` [Compound 175, (2R,3S)-2-(4-(cyclopentyl(isoquinolin-1-yl)amino)phenyl)-N-(4-methyl-3-(trifluoromethyl)phenyl)piperidine-3-carboxamide], with 2 to 10 µM.
